Tests used:
[1] = test system: PMA-differentiated THP-1 cell lysates; experiment: DIA mass spectrometry proteomics of cell lysates; assay type: cell-based, human; conditions: 100, 200, 300, 400 μM for 24 hours; adjusted p-value<0.05
Protocol: To confirm the increased expression of target genes of NRF2 transcription factor at the protein level, proteins were profiled by untargeted mass spectrometry in PMA-differentiated THP-1 cell lysates after anatabine treatment (100, 200, 300, 400 μM) for 24 hours.
Samples were processed using PREOMICS IST KIT (PreOmics GmbH, Planegg/Martinsried, Germany) as described in the manufacturer's protocol. Briefly, 100 μl of PREOMICS LYSE BUFFER were added to the cells, samples were incubated at 90° C. for 10 min and sonified for 30 sec with a sonifier (Brandson, Danbury, Connecticut, USA) at 10% amplitude. Protein amount was determined using the PIERCE 660 NM PROTEIN ASSAY (Pierce Biotechnology, Rockford, USA) following the manufacturer's protocol. Samples were normalized to 0.5 μg/μl and 40 μg was further processed with PREOMICS IST KIT with a 3 h trypsin digestion. Peptides were purified on the cartridge, dried overnight on a vacuum concentrator (Martin Christ, Germany) and re-suspended in 50 μL of LC SOLUTION (Biognosys AG, Switzerland). 1 μL of iRT reference peptides (Biognosys AG, Switzerland) was added to 19 μL of processed sample. Samples were analysed with an EASY 1000 NANOLC (ThermoFisher Scientific) connected online to a Q-Exactive (ThermoFisher Scientific). […]

NRF2 = NRF2 luciferase assay (NRF2/ARE reporter cell line); assay type: cell-based, human
Description: A HEK-293 NRF2/ARE luciferase reporter cell line was acquired from Signosis (USA). According to Signosis, this NRF2 luciferase reporter stable cell line had been stably transfected with pTA-ARE-luciferase reporter vector, which contains 4 repeats of antioxidant response binding sites, a minimal promoter upstream of the firefly luciferase coding region, along with a hygromycin expression vector. Following selection, the hygromycin resistant clones were subsequently screened for TBHQ-induced luciferase activity. The clone with the highest fold induction was selected and expanded to produce this stable cell line.
4, 8 or 24 hours after stimulation of the NRF2 reporter cells luminescence was measured using a FLUOstar Omega plate reader.

C1=CCC(c2cccnc2)NC1 (racemic) [anatabine, 1,2,3,6-Tetrahydro-2,3′-bipyridine]
intracellular protein products of NRF2 target genes HMOX1, GCLM, NQO1 and TXNRD1 [1]: significantly expressed | maximum log 2-fold change of NRF2 activation (NRF2; at 12.5 μM for sulforaphane, 125 μM and 250 μM for DMF, 1000 μM for anatabine): over 7 | NRF2 luciferase reporter signal (NRF2; concentration series): concentration-dependent rise

Source: patent US20260224547A1, “COMPOSITIONS COMPRISING ANATABINE AND USES THEREOF” (Philip Morris Products S.A., priority 2021, published 2026)
